In patent US12624068B2, “Exon skipping by peptide nucleic acid derivatives” (OliPass Corporation, priority 2016, dated 2026):
{Fethoc} = N-terminal Fethoc cap; [C(1O2)] = modified PNA monomer acting as cytosine, C(pOq) type, 1O2; [A(5)] = modified PNA monomer acting as adenine, A(p) type, p=5; [G(5)] = modified PNA monomer acting as guanine, G(p) type, p=5; {NH2} = C-terminal amide

How the values were obtained:
10-mer complementary DNA = assay: Tm between PNA derivatives and 10-mer complementary DNA (N- or C-terminal); type: binding; details: uncorrected
Procedure, shortened: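 4 μM 10-mer PNA with 4 μM complementary 10-mer DNA in pH 7.16 buffer (10 mM sodium phosphate, 100 mM NaCl) was heated at 90 °C for a minute, slowly cooled to ambient, then Tm measured by UV absorbance at 260 nm.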

human AR pre-mRNA = assay: AR nested PCR for exon skipping in MCF7 cells; type: cell-based; details: 3 hours
Experimental: “AR-ASO 1” was evaluated by AR nested PCR for its ability to induce the skipping of exon 5 of the human AR mRNA in MCF7 cells as follows. [Cell Culture & ASO Treatment] MCF7 cells (Cat. Number: HTB-22, ATCC) were maintained in EMEM medium supplemented with 10% FBS, 1% streptomycin/penicillin, and 0.01 mg/mL bovine insulin under 5% CO2 atmosphere at 37° C. Cells grown in 60 mm culture dish were treated with “AR-ASO 1” for 3 hours at 0 (negative control), 3, 30, 300 or 3,000 aM (i.e., 3 fM). [RNA Extraction] Total RNA was extracted using “Universal RNA Extraction Kit” (Cat. No. 9767, Takara) according to the manufacturer's instructions [cDNA Synthesis by One Step RT-PCR] […] NO: 55); and AR-exon 9_reverse: (5'→3') […] [Nested PCR Amplification] Throughout the amplification process, was used a unique amplification technique (touch up as increasing annealing temperature per cycle) that worked efficiently and specifically over a temperature range, rather than at one specific annealing temperature (i.e., conventional PCR method). […] NO: 57); and AR-exon 7n_reverse: (5'→3') […] […] The bands of target size were collected and analyzed by Sanger Sequencing. […] “AR-ASO 1” was evaluated for its exon skipping ability in MCF7 cells grossly showing the morphology of cumulus shape as described in “AR Example 1”, unless noted otherwise. […]

AR protein = assay: AR western blot in MCF7 cells; type: cell-based, human; details: 10 zM to 30 aM, 48 hours
Experimental: 4 culture dishes for the negative control. 48 hours later, cells were washed 2× with cold PBS, and then subjected to lysis with 200 μL 1× cell lysis buffer (Cat. No. 9803, Cell Signaling Tech) supplemented with 1× protease inhibitors (Cat. No. P8340, Sigma). The lysates were collected in 1.5 mL e-tube. 200 μL of each lysate was mixed with 100 μL 3× sample buffer, and boiled for 5 min. 20 μL of each lysate (4 negative controls and 8 ASO treatment samples) was subjected to electrophoretic separation on a 8% SDS-PAGE gel, and transferred onto a PVDF membrane. The membrane was probed with an anti-AR antibody (Cat. Number 5153, Cell Signaling Tech) and an anti-3-actin antibody (Cat. Number sc4778, Santa Cruz).

AR mRNA = assay: qPCR by SYBR Green for AR mRNA in MCF7 cells; details: 5 hours
Experimental: [ASO Treatment and RNA Extraction] […] (2 culture dishes per concentration) 5 hours later, total RNA was extracted using “MiniBEST Universal RNA Extraction Kit” according to the manufacturer's instructions (Cat. Number 9767, Takara).
[cDNA Synthesis with OligodT]
The PCR reactions were probed by SYBR Green (Takara, Japan).

Nav1.7 protein = assay: Nav1.7 western blot in rat L5 DRG neuronal cells; type: cell-based; details: rat DRG neuronal cells (L5/L6 ligation)
Experimental: “SCN-ASO 30” was evaluated for its ability to inhibit the expression of Nav1.7 protein in rat DRG neuronal cells as described below.
[Preparation of DRG Neuronal Cells] Male SD rats (7 weeks old) were subjected to tight “L5/L6 ligation”. 7 days later, 4 rats were anesthetized with zoletil/rompun to sample the L5 DRG of the ligated side. The DRGs were pooled and processed to prepare DRG neuronal cells as described in “SCN9A Example 12”.
[ASO Treatment] DRG neuronal cells were treated with “SCN-ASO 30” at 0 (negative control), 10, 100 or 1,000 zM for 24 hours, and then subjected to lysis for western blot against a Nav1.7 antibody (Cat. No. ab85015, Abcam) probing the C-terminal of the Nav1.7 protein. β-actin was probed for reference.

[1] = system: sodium current in rat L5 DRG neuronal cells; assay: Manual patch clamp sodium current in rat L5 DRG neuronal cells; type: cell-based; details: rat L5 DRG neuronal cells (L5/L6 ligation), small size, 100 zM, 4 hours
Experimental: “SCN-ASO 30” was evaluated for its ability to inhibit the sodium current in rat L5 DRG neuronal cells stimulated with L5/L6 ligation as provided below.
[Preparation of DRG Neuronal Cells] Male SD rats (6 weeks old) were subjected to tight “L5/L6 ligation”. 7 days later, rats were anesthetized with zoletil/rompun for the extraction of L5 DRG of the ligated side. […]

full-length SCN9A mRNA = assay: SCN9A qPCR by cDNA synthesis with random hexamers in rat L5 DRG cells; type: cell-based; details: 24 hours
Experimental: “SCN-ASO 30” was evaluated by SCN9A qPCR for its ability to inhibit the expression of the SCN9A mRNA in rat L5 DRG cells. Total RNA was prepared as described in “SCN9A Example 15”, and subjected to cDNA synthesis using random hexamers.
The cDNA solutions were also subjected to qPCR amplification for the GAPDH mRNA. The Ct values of the SCN9A mRNA were normalized against the Ct values of GAPDH mRNA.

| Substance | Tm Value, 10-mer DNA against C-Terminal (10-mer complementary DNA) [°C] | Tm Value, 10-mer DNA against N-Terminal (10-mer complementary DNA) [°C] | skipping of AR exon 5 by nested PCR (human AR pre-mRNA; MCF7 cells of cumulus shape morphology, 30, 100 or 1,000 aM) | AR exon skipping by nested PCR (human AR pre-mRNA; MCF7 cells, 3, 30, 300 or 3,000 aM) | AR band (120K size) intensity by western blot (AR protein) | AR exon levels (SYBR Green), rebound (AR mRNA; 1 aM (1,000 zM)) | decrease of AR exon 4-6 levels (SYBR Green) (AR mRNA; 100 zM) | full-length Nav1.7 protein band at 220-240K (Nav1.7 protein; 10 zM, 24 hours) | Nav1.7 expression by western blot (Nav1.7 protein; 100 and 1,000 zM, 24 hour) | decrease of sodium current (manual patch clamp, normalized against cell size) [1] [%] | decrease of full-length SCN9A mRNA expression level (random hexamers, normalized against GAPDH) (full-length SCN9A mRNA) |
| --- | --- | --- | --- | --- | --- | --- | --- | --- | --- | --- | --- |
| Fethoc-C(1O2)TT-A(5)CC-A(5)GG-C(1O2)AA(5)-G-NH2 (antisense CTTACCAGGCAAG; all peptide nucleic acid (PNA), [C(1O2)] at 1, 10, [A(5)] at 4, 7, 12, 5' {Fethoc}, 3' {NH2}; peptide nucleic acid backbone) [AR-ASO 1] | 81.3 | 86.1 | distinctively predominant | induce the skipping of exon 5, exons 4-5, and exons 4-6 | weaker than the intensity of their neighboring lysates | rebounded close toward the negative control levels | 40-50% | – | – | – | – |
| Fethoc-AA(5)G-TG(5)T-A(5)CC(1O2)-TA(5)A-A(5)G-NH2 (AAGTGTACCTAAAG; all peptide nucleic acid (PNA), [A(5)] at 2, 7, 11, 13, [G(5)] at 5, [C(1O2)] at 9, 5' {Fethoc}, 3' {NH2}; peptide nucleic acid written N to C) [SCN-ASO 30] | 74.0 | 79.0 | – | – | – | – | – | detected | markedly inhibited | ~90 | 45-75% |
